# Test results published in article PMC6429459, “The HslV Protease from Leishmania major and Its Activation by C-terminal HslU Peptides” (International Journal of Molecular Sciences, 2019).
# * marks the point of attachment. AMC = Cc1cc(=O)oc2cc(N*)ccc12; Cbz = O=C(OCc1ccccc1)*
# Key:
# [1] = target: HslV from E. coli (EcHslV) (Escherichia coli, UniProt P0A7B8); details: compared with Z-GGL-AMC; in words
# Description: A further improvement to our assays was the development of a novel fluorogenic peptide substrate, which was more convenient to use than Z-GGL-AMC. Indeed, although the substrate Z-GGL-AMC mostly used in the literature for the studies of HslV has proven useful, its use is limited by its poor solubility in aqueous solutions [6, 36]. In view of finding alternative substrates for LmHslV, we tested a variety of possible fluorogenic substrates (commercial or home-made) including Suc-LLVY-AMC, a classical substrate used for the eukaryotic proteasome, in the presence of the reference activator peptide LmC12-U2.
# LmHslV = assay: Degradation of fluorogenic substrates by LmC12-U2-activated LmHslV; type: biochemical, Leishmania major; details: LmHslV 75.2 nM, 37 °C, substrate 100 μM, activating peptide LmC12-U2 500 μM; Figure 2; in words
# Method: Activity assay: The peptidase activity of recombinant LmHslV was assessed by measuring the fluorescence of AMC released after hydrolysis of the fluorogenic substrates Z-GGL-AMC or JMV4482 (Z-EVNL-AMC), 100 µM. LmHslV activation was obtained by addition of activating peptides (see type and concentration in the figure legends). Activity buffer: 25 mM Tris-HCl pH 8.0, 1 mM DTT, 0.5 mM EDTA and 5 mM MgCl2. Most of the experiments were performed in a final volume of 50 µL in black 96-well microplates (Fisher Scientific, Illkirch, France. Fluorescence was measured using a spectrofluorimeter (BIO-TEK Instrument, Inc., Winooski, VT, USA): filters 360/340 for excitation and 460/440 for emission.
# Figure 2 Degradation of different fluorogenic substrates by LmHslV. LmHslV (75.2 nM) was incubated at 37 °C with different fluorogenic substrates (100 μM) in the presence of the activating peptide LmC12-U2 (500 μM). The fluorescence of the free AMC group, proportional to the activity of the sample, was measured at 2 min. intervals. With each substrate, no activity was measured in the absence of activating peptide: for the sake of clarity, only the negative control values obtained with the substrate ZGGL-AMC are shown.
# [2] = Solubility in aqueous assay solutions (observation); details: aqueous assay conditions, peptide concentrations in the millimolar range; in words
# HslV from E. coli (EcHslV), sequence (P0A7B8 2-176): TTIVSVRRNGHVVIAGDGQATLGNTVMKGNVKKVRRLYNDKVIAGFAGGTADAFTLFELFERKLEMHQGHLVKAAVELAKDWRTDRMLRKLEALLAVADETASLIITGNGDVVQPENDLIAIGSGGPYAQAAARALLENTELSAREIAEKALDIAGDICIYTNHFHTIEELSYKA
Substance,Degradation of fluorogenic substrate by EcHslV [1],Degradation of fluorogenic substrate by activated LmHslV (LmHslV),Solubility of activating peptide [2]
Cbz-EVNL-{AMC} (SMILES Cc1cc(=O)oc2cc(NC(=O)[C@H](CC(C)C)NC(=O)[C@H](CC(N)=O)NC(=O)[C@@H](NC(=O)[C@H](CCC(=O)O)NC(=O)OCc3ccccc3)C(C)C)ccc12) [Z-EVNL-AMC],more efficiently degraded by HslV from E. coli (EcHslV) than Z-GGL-AMC,more efficiently degraded by LmHslV than Z-GGL-AMC and Suc-LLVY-AMC,–
H-VNLAKYLL-OH [Compound 3],–,–,not soluble enough for reliable results
